A word on the solubility: it is the concentration that dissolves in the medium under given conditions. Low readings indicate a poorly soluble substance, high ones a readily soluble substance. The term IC50 denotes the concentration at which inhibition is half-maximal. As a reminder, the hepatocyte CLint is the capacity of the preparation to metabolise the compound, expressed as a volume cleared per time.

Values after ≈ are worked out from the molar mass of the structure shown. Read-outs that look alike come from different tables or passages of the source.

Data set [1] can be described thus: Solubility, miniaturised shake-flask method. It counts as physicochemical. The note with it: aqueous buffer, thermodynamic from solid, pH 7.4 as headed, phosphate buffer, 25° C. The protocol:
[…] Briefly, 4 μl of a 10 mM stock in DMSO was added to a 96-well plate and evaporated using a GeneVac system. […] At the end of this incubation, the samples were centrifuged at 3500 g for 15 min then transferred to an analysis plate. A calibration curve in DMSO for each sample between 10-220 μM was prepared and included in the analysis plate. Analysis was then performed by LC-MS (Agilent Rapid Resolution HPLC, AB SCIEX 4500 MS) and solubility of each sample determined from the corresponding calibration curve.

The test system of another data set is HEK293 cell line. Description: MTT assay IC50 in HEK293 cell line. It counts as cell-based, human. The method, then:
(§1) The DU-145 cell lines and HEK293 cell lines were grown to 70% confluence in DMEM supplemented with 10% (v/v) fetal bovine serum and 1% antibiotic (100 μg/mL of streptomycin and 100 unit/mL of penicillin (P/S) at 37° C. in a 5% CO2 environment.
(§2) The half maximal inhibitory concentration (IC50) was established in the selected cell lines. The cell lines previously identified as having high endogenous expression levels of SRD5A2 were used to determine the in-vitro cytotoxic effects of Bsy1 on DU-145 and HEK293. The results were compared with the comparative compounds finasteride and dutasteride. The cytotoxic concentration and cell viability of these drugs were evaluated using the 3-(4,5-dimethylthiazol-2-yl)-2,5-diphenyl-2H-tetrazolium bromide (“MTT”) assay, using the comparative compounds as positive controls.
(§3) The study seeded cells at 1×10^4 cells/well density using a 96-well plate and incubated them for 24 hours to allow the cells to attach in a 5% CO2 incubator at 37° C. Different serial concentrations of the compounds treated the cells, 1% (v/v) DMSO/methanol in DMEM treated the control cells, and DMEM only served as a blank. Cells were stained with 100 μl of a 0.5 mg/ml MTT solution and incubated in a 5% CO2 atmosphere at 37° C. incubators for 4 hours. The medium was aspirated, and 100 μl of absolute ethanol was added to each well. The formation of […] measured all growth and chemosensitivity. Absorbance was detected spectrophotometrically at 570 nm using a reference wavelength of 630 nm. The experiments were performed in triplicate.
(§4) The dose-response from the non-linear curve (inhibitor vs normalised response—variable slope curve), plotted using GraphPad Prism V 9.3.1, was used to determine the IC50 values of these cells.
However, the IC50 values for Bsy1 in the HEK293 cell lines were higher than in the DU-145 cells.
A general note: Tetrazolium assays rely on reduction of a dye to a coloured formazan, in cell work by metabolically active cells.

In another data set the test system is DU-145 cell line. Put plainly: MTT assay IC50 in DU-145 cell line. The format is cell-based, human. The note with it: called antagonist activity against SRD5A2. The protocol:
as §1, §2, §3, §4
The study determined the ICs values using a non-linear curve fit with a hyperbola model (FIG. 3).

Data set [2] relates to SRD5A2 gene. Description: qPCR relative expression of SRD5A2 gene in DU-145 cell line. The format is cell-based, human. Conditions: DU-145, 24 hours at IC50 (finasteride 0.9 nM, dutasteride 1.6 μM, Bsy1 0.0054 nM). The method, then:
as §1
(§5) The androgen-independent DU-145 cell line, treated with finasteride (0.9 nM), dutasteride (1.6 μM), and Bsy1 (0.0054 nM) for 24 hours, was measured for their SRD5A gene regulation using qPCR. […] The relative expression of the SRD5A2 gene was reduced by approximately 3-fold for finasteride and dutasteride and 2-fold for Bsy1 (FIG. 5A). However, it should be noted that the finasteride concentrations were 100-fold, and dutasteride 1000-fold, higher than the concentration of Bsy1. […] The level of inhibitory action against SRD5A1 and SRD5A2 is surprising as it is expected that that the phenyl-pyrazolo[3,4-b]pyridine-4-carboxylic acid Bsy1 and its derivates, as described herein, will show similar inhibition results. […] Experiments were repeated three times.]
(§6) A two-way ANOVA statistical analysis was conducted to compare the gene suppression levels of each drug treatment against the control (untreated), using Dunnett's correction test (DCT) (FIG. 5B). [FIG. 5B—two-way ANOVA Dunnett test of the Control vs Treatment at IC50 values. Comparison tests of control vs. drug treatment at p<0.05 for: SRD5A1 (ns); SRD5A2**; SRD5A3 (ns). […]
On the technique in general: Real-time PCR tracks product formation cycle by cycle.

The test system of data set [3] is SRD5A2 gene. Description: qPCR relative expression of SRD5A2 gene in HEK293 cell line. The format is cell-based, human. Conditions: for relative expression of the SRD5A2 gene increased: HEK293, 24 hours at IC50 (finasteride 1.34 nM, dutasteride 1.29 μM, Bsy1 0.02 nM). The protocol:
as §1
Experiments were repeated three times.]
The two-way ANOVA compared the expression levels of the SRD5A genes and between the different drugs in HEK293 cell lines (FIG. 6 B). […] Data were expressed for each bar as means±standard error of mean ****P≤0.0001 from control.

In data set [4] the test system is HEK293 and DU-145 cell lines. Description: Selectivity index from ratio of IC50 values, normal cells vs cancer cells. It counts as cell-based, human. Conditions: normal cells (HEK293) vs cancer cells (DU-145). The protocol:
The selectivity index, indicating the selectivity of a given compound between normal cells and cancer cells, was calculated from the ratio of their respective IC50 values (Equation 1).

For data set [5] the following is noted: CD1, mouse, 1 μM.
Procedure: (§7) Hepatocyte stability was performed using a 5-point assay design using cryopreserved hepatocytes in suspension. Briefly, the compounds (1 μM) were incubated at 37° C. in human (Hepatosure 100-donor pool, XenoTech LLC) and mouse (Cryostax mouse CD1, XenoTech LLC) hepatocytes (500,000 cells/ml) for various timepoints over 120 min. Reactions were quenched by adding ice-cold acetonitrile containing internal standard. The samples were then centrifuged, and the samples analysed by LC-MS/MS (Agilent Rapid Resolution HPLC, AB SCIEX 4500 MS) for the disappearance of parent compound. Half-life, clearance and hepatic excretion ratios were determined using standard equations.
(§8) The CLint,app value can be used to calculate a predicted in vivo value by factoring in scaling factors (number of hepatocytes per gram of liver and grams of liver per kg body weight) and binding (measured plasma protein binding and estimated incubational binding). The predicted mouse and human clearance values represent the total hepatic clearances that would be expected for these compounds in vivo.
The target in another data set is T1, SRD5A2 (Homo sapiens, UniProt P31213).
T1 sequence (P31213 1-254): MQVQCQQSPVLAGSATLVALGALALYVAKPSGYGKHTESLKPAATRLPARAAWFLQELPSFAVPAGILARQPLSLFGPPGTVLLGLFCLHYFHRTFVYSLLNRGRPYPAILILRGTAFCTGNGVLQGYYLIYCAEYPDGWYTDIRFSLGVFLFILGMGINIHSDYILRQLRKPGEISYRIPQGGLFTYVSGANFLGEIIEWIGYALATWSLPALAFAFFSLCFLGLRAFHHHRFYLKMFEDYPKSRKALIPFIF
The note with it: cited from earlier work.

A short description of data set [6]: Plasma protein binding by ultracentrifugation. It counts as in vitro ADME. Conditions: mouse, read-out: Mouse PPB (converted).
The next data set concerns SRD5A1 gene. Put plainly: qPCR relative expression of SRD5A1 gene in DU-145 cell line. The format is cell-based, human. The note with it: DU-145, 24 hours at IC50 values. The protocol:
as §1, §5, §6

Data set [7] can be described thus: in vitro. Conditions: human, hepatocytes.
Procedure: as §7, §8
Data set [8] in a line: in vitro. The note with it: CD1, mouse, hepatocytes.
Procedure: as §7, §8
For data set [9] the following is noted: 1 μM.
Procedure: as §7, §8
Data set [10] is described as follows: Mouse hepatocyte stability.
Procedure: as §7, §8
Data set [11] in a line: Human hepatocyte stability.
Procedure: as §7, §8
Where [12] appears, read: Homo sapiens, DU-145, DU-145 cell line.
[13] abbreviates: Homo sapiens, HEK293, HEK293 cell line, called antagonist activity against SRD5A2, read-out: IC50.

On to `O=C1C=C(C(=O)O)C2C(C3CC3)=NN(c3ccccc3F)C2N1` (centres unmarked) [Bsy4, 3-cyclopropyl-1-(2-fluorophenyl)-6-oxo-3a,6,7,7a-tetrahydro-1H-pyrazolo[3,4-b]pyridine-4-carboxylic acid], for which the solubility at 24 h in [1] is above 200 µM.

For `O=C1C=C(C(=O)O)C2C(C3CC3)=NN(c3ccc(Br)cc3)C2N1` (centres unmarked) [Bsy2, 1-(4-bromophenyl)-3-cyclopropyl-6-oxo-3a,6,7,7a-tetrahydro-1H-pyrazolo[3,4-b]pyridine-4-carboxylic acid], the solubility at 24 h in data set [1] amounted to 195 µM (≈ 73.4 µg/mL).

Consider `O=C1C=C(C(=O)O)C2C(C3CC3)=NN(c3cccc(F)c3)C2N1` (centres unmarked) [Bsy5, 3-cyclopropyl-1-(3-fluorophenyl)-6-oxo-3a,6,7,7a-tetrahydro-1H-pyrazolo[3,4-b]pyridine-4-carboxylic acid], for which the solubility at 24 h in data set [1] is above 200 µM.

For `O=C1C=C(C(=O)O)C2C(C3CC3)=NN(c3ccc(Cl)cc3)C2N1` (centres unmarked) [Bsy3, 1-(4-chlorophenyl)-3-cyclopropyl-6-oxo-3a,6,7,7a-tetrahydro-1H-pyrazolo[3,4-b]pyridine-4-carboxylic acid], the solubility at 24 h in data set [1] came to 190 µM (≈ 63 µg/mL).

Consider `C[C@]12C=CC(=O)N[C@@H]1CC[C@@H]1[C@@H]2CC[C@]2(C)[C@@H](C(=O)Nc3cc(C(F)(F)F)ccc3C(F)(F)F)CC[C@@H]12` [Dutasteride], for which the IC50 with HEK293 cell line (HEK293 cell line, called antagonist activity against SRD5A2) worked out at 1210 ± 1370 nM; in the data set on HEK293 cell line (Homo sapiens, HEK293, HEK293 cell line, called antagonist activity against SRD5A2), 1290 nM; in the data set with DU-145 cell line (DU-145 cell line), 1670 ± 1850 nM; in the data set on DU-145 cell line (setting [12]), 1600 nM. For the same compound, the “relative expression of the SRD5A2 gene reduced” value in the data set on SRD5A2 gene [2] is “approximately 3 fold”. Also, the “relative expression of the SRD5A2 gene increased” value with SRD5A2 gene [3] is on record as “approximately 2 fold”. Moreover, in [4], the “SELECTIVITY INDEX” value was 0.81.

In turn, `COc1ccc(N2N=C(C3CC3)C3C(C(=O)O)=CC(=O)NC32)cc1` (centres unmarked) [Bsy6, 3-cyclopropyl-1-(4-methoxyphenyl)-6-oxo-3a,6,7,7a-tetrahydro-1H-pyrazolo[3,4-b]pyridine-4-carboxylic acid] returned a solubility at 24 h in data set [1] of 120 µM (≈ 39.3 µg/mL).

With `CC(C)(C)NC(=O)[C@H]1CC[C@H]2[C@@H]3CC[C@H]4NC(=O)C=C[C@]4(C)[C@H]3CC[C@]12C` [Finasteride], the IC50 with HEK293 cell line (HEK293 cell line, called antagonist activity against SRD5A2, read-out: IC50) amounted to 1.24 ± 1.43 nM; with HEK293 cell line (setting [13]), 1.34 nM; with DU-145 cell line (DU-145 cell line), 0.72 ± 1.09 nM; with DU-145 cell line (setting [12]), 0.9 nM. For the same compound, the “Predicted mouse Clearance” value in [5] is 10.6 mL/min/kg. Moreover, at SRD5A2, the “selectivity for SRD5A2 than SRD5A1” value is on record as 100 fold. Moreover, in the data set with SRD5A2 gene [2], the “relative expression of the SRD5A2 gene reduced” value is “approximately 3 fold”. In addition, the fraction unbound at 4 h, 10 μM in data set [6] was 0.27. For the same compound, the SRD5A1 suppression result in the data set with SRD5A1 gene was “comparable”. In addition, the hepatocyte CLint at 1 μM in the data set “in vitro [7]” worked out at 4.5 µL/min/1e6 cells; in “in vitro [8]”, 13.8 µL/min/1e6 cells. Besides, in the data set with SRD5A2 gene [3], the “relative expression of the SRD5A2 gene increased” value is given as around 0.75 fold. Besides, the “SRD5A2 expression, drug treatment vs untreated, two-way ANOVA Dunnett test” value in the data set with SRD5A2 gene [3] (HEK293, IC50 values) is “ns”. Also, in data set [1], the solubility at 24 h was above 200 µM. Besides, the “SELECTIVITY INDEX” value in data set [4] turned out to be 1.49. The “Predicted human Clearance” value in data set [9] is 3.3 mL/min/kg.

As to `O=C1C=C(C(=O)O)C2C(C3CC3)=NN(c3ccc(F)cc3)C2N1` (centres unmarked) [Bsy1, 3-cyclopropyl-1-(4-fluorophenyl)-6-oxo-3a,6,7,7a-tetrahydro-1H-pyrazolo[3,4-b]pyridine-4-carboxylic acid], the 50% inhibitory concentration (IC50) in the data set on HEK293 cell line (setting [13]) worked out at 0.02 nM; with DU-145 cell line (DU-145 cell line), 5400 nM. Also, the intrinsic clearance (hepatocyte CLint) at 1 μM in [10] (CD1, mouse, cryopreserved hepatocytes in suspension) was below 6.4 µL/min/1e6 cells; in [11] (human, cryopreserved hepatocytes in suspension), 4.1 µL/min/1e6 cells. In addition, the hepatic clearance classification result in data set [10] (mouse, predicted clearance below 30% of liver blood flow 126 ml/min/kg) is on record as “low hepatic clearance”; in [11] (human, predicted clearance below 30% of liver blood flow 20.7 ml/min/kg), “low hepatic clearance”. In addition, in data set [10] (scaled from mouse hepatocyte CLint,app), the “Predicted mouse Clearance” value was below 13.8 mL/min/kg. Also, the fraction unbound at 4 h, 10 μM in data set [6] was 0.95. Also, the “Predicted human Clearance” value in data set [11] (scaled from human hepatocyte CLint,app) is 6.7 mL/min/kg. Also, the SRD5A1 suppression entry in the data set on SRD5A1 gene is reported as “comparable”. The “relative expression of the SRD5A2 gene increased” value with SRD5A2 gene [3] is recorded as “approximately 2 fold”. The compound also registered a solubility at 24 h in data set [1] above 200 µM. Besides, the “SELECTIVITY INDEX” value in data set [4] came out at 3.7.

Source of the values: patent publication US20260199301A1, “PHENYL-PYRAZOLO[3,4-B]PYRIDINE-4-CARBOXYLIC ACID DERIVATES FOR USE AS 5-ALPHA REDUCTASE ANTAGONISTS IN METHODS OF TREATMENT” (UNIVERSITY OF CAPE TOWN, priority 2022, published 2026).
